The values below come from patent US20090239836A1, “Multifunctional Ophthalmic Compositions” (priority 2008, published 2009).

SMILES strings stand for the structures.

This data set is described as follows: Solubility of compound having Formula V in various media. The format is physicochemical. An excerpt: For example, the solubility of the compound having Formula V in some embodiments of the present composition is compared to that in water in Table 1.

As for `Cc1ccc2c(NCC(O)(CC(C)(C)c3cc(F)cc4c3OCC4)C(F)(F)F)cccc2n1` (centres unmarked) [Compound Having Formula V], the solubility (Medium: Water, pH 7) was found to be 0.2 µg/mL; the solubility (aqueous with cosolvent or surfactant or cyclodextrin, Medium: 1% Polysorbate 80) is 12 µg/mL; the solubility (aqueous with cosolvent or surfactant or cyclodextrin, Medium: 10% PEG-400/1% polysorbate 80 (a composition of the present invention)) was 12 µg/mL; the solubility (aqueous with cosolvent or surfactant or cyclodextrin, Medium: 25% PEG-40/1% polysorbate 80 (a composition of the present invention)) turned out to be 18 µg/mL; the solubility (organic solvent or mixture, Medium: PEG-400) is 5.6 µg/mL.
